Laboratory results taken from ChEMBL document CHEMBL4041467, “Synthesis of novel 15-membered 8a-azahomoerythromycin A acylides: Consequences of structural modification at the C-3 and C-6 position on antibacterial activity” (Eur J Med Chem, 2017).
Converted amounts (≈) assume the structure as drawn.

How the values were obtained:
Haemophilus influenzae = test: Antibacterial activity against Haemophilus influenzae by agar microdilution method; assay type: functional
Streptococcus pyogenes [1] = test: Antibacterial activity against constitutively macrolide/lincosamide/streptogramin B-resistant Streptococcus pyogenes by agar microdilution method; assay type: functional
Streptococcus pneumoniae [2] = test: Antibacterial activity against erythromycin susceptible Streptococcus pneumoniae by agar microdilution method; assay type: functional
Streptococcus pneumoniae [3] = test: Antibacterial activity against Mef-mediated macrolide efflux resistant Streptococcus pneumoniae by agar microdilution method; assay type: functional
Staphylococcus aureus [4] = test: Antibacterial activity against erythromycin susceptible Staphylococcus aureus by agar microdilution method; assay type: functional
Streptococcus pneumoniae [5] = test: Antibacterial activity against constitutively macrolide/lincosamide/streptogramin B-resistant Streptococcus pneumoniae by agar microdilution method; assay type: functional
Staphylococcus aureus [6] = test: Antibacterial activity against constitutively macrolide/lincosamide/streptogramin B-resistant Staphylococcus aureus by agar microdilution method; assay type: functional
Streptococcus pyogenes [7] = test: Antibacterial activity against erythromycin susceptible Streptococcus pyogenes by agar microdilution method; assay type: functional
Streptococcus pyogenes [8] = test: Antibacterial activity against Mef-mediated macrolide efflux resistant Streptococcus pyogenes by agar microdilution method; assay type: functional
Staphylococcus aureus [9] = test: Antibacterial activity against inducibly macrolide/lincosamide/streptogramin B-resistant Staphylococcus aureus by agar microdilution method; assay type: functional
Plasma = test: Stability in rat plasma at 1 uM up to 120 mins by LC-MS/MS analysis; assay type: ADME, cell-free; conditions: 2 h
Staphylococcus aureus [10] = test: Potency index, ratio of clarithromycin ED50 to compound ED50 for erythromycin susceptible Staphylococcus aureus infected in mouse; assay type: functional
Streptococcus pneumoniae [11] = test: Potency index, ratio of clarithromycin ED50 to compound ED50 for erythromycin susceptible Streptococcus pneumoniae infected in mouse; assay type: functional
Streptococcus pneumoniae [12] = test: Antibacterial activity against erythromycin susceptible Streptococcus pneumoniae infected in mouse assessed as increase in mouse survival administered orally 1 hr post infection; assay type: functional; conditions: po
Staphylococcus aureus [13] = test: Antibacterial activity against erythromycin susceptible Staphylococcus aureus infected in mouse assessed as increase in mouse survival administered orally 1 hr post infection; assay type: functional; conditions: po
[14] = Metabolic stability in mouse liver microsomes assessed as parent compound remaining at 1 uM after 60 mins in presence of NADP by LC-MS/MS analysis; assay type: ADME, microsome; conditions: read-out: Stability
[15] = Metabolic stability in rat liver microsomes assessed as parent compound remaining at 1 uM after 60 mins in presence of NADP by LC-MS/MS analysis; assay type: ADME, microsome; conditions: read-out: Stability
[16] = Metabolic stability in human liver microsomes assessed as parent compound remaining at 1 uM after 60 mins in presence of NADP by LC-MS/MS analysis; assay type: ADME, microsome; conditions: read-out: Stability

remaining at 1 h, 1 µM [14] [%] | remaining at 1 h, 1 µM [15] [%] | remaining at 1 h, 1 µM [16] [%] | SMILES | MIC (Haemophilus influenzae) [µg/mL] | MIC (Streptococcus pyogenes [1]) [µg/mL] | MIC (Streptococcus pneumoniae [2]) [µg/mL] | MIC (Streptococcus pneumoniae [3]) [µg/mL] | MIC (Staphylococcus aureus [4]) [µg/mL] | MIC (Streptococcus pneumoniae [5]) [µg/mL] | MIC (Staphylococcus aureus [6]) [µg/mL] | MIC (Streptococcus pyogenes [7]) [µg/mL] | MIC (Streptococcus pyogenes [8]) [µg/mL] | MIC (Staphylococcus aureus [9]) [µg/mL] | Stability (Plasma) | Ratio ED50 (Staphylococcus aureus [10]) | Ratio ED50 (Streptococcus pneumoniae [11]) | ED50 (Streptococcus pneumoniae [12]) [mg/kg] | ED50 (Staphylococcus aureus [13]) [mg/kg]
 |  |  | COC(=O)c1cn(C2CC2)c2cc(N3CCNCC3)c(F)cc2c1=O | 16 (≈ 46.3 µM) | > 64 | > 64 | > 64 | > 64 | > 64 | > 64 | > 64 | > 64 | > 64 |  |  |  |  | 
 |  |  | C=CCO[C@]1(C)C[C@@H](C)NC(=O)[C@H](C)[C@@H](O)[C@](C)(O)[C@@H](CC)OC(=O)[C@H](C)[C@@H](OC(=O)CCN2CCN(c3cc4c(=O)c(C(=O)O)cn(C5CC5)c4cc3Cl)CC2)[C@H](C)[C@H]1O[C@@H]1O[C@H](C)C[C@H](N(C)C)[C@H]1O | 4 (≈ 3.87 µM) | 8 (≈ 7.75 µM) | ≤ 0.125 | 0.5 (≈ 0.484 µM) | ≤ 0.125 | 4 (≈ 3.87 µM) | > 64 | ≤ 0.125 | 1 (≈ 0.968 µM) | 0.25 (≈ 0.242 µM) |  |  |  |  | 
 |  |  | O=C(O)c1cn(C2CC2)c2cc(Cl)c(N3CCNCC3)cc2c1=O | > 64 | > 64 | > 64 | > 64 | > 64 | > 64 | > 64 | > 64 | > 64 | > 64 |  |  |  |  | 
 |  |  | C=CCO[C@]1(C)C[C@@H](C)NC(=O)[C@H](C)[C@@H](O)[C@](C)(O)[C@@H](CC)OC(=O)[C@H](C)[C@@H](OC(=O)CCN2CCN(c3ccc4c(c3)c(=O)c(C(=O)O)cn4C3CC3)CC2)[C@H](C)[C@H]1O[C@@H]1O[C@H](C)C[C@H](N(C)C)[C@H]1O | 16 (≈ 16 µM) | 32 (≈ 32.1 µM) | 2 (≈ 2 µM) | 4 (≈ 4.01 µM) | 4 (≈ 4.01 µM) | 16 (≈ 16 µM) | > 64 | 4 (≈ 4.01 µM) | 16 (≈ 16 µM) | 8 (≈ 8.01 µM) |  |  |  |  | 
 |  |  | C=CCO[C@]1(C)C[C@@H](C)NC(=O)[C@H](C)[C@@H](O)[C@](C)(O)[C@@H](CC)OC(=O)[C@H](C)[C@@H](OC(=O)CCN2CCN(C(=O)c3ccco3)CC2)[C@H](C)[C@H]1O[C@@H]1O[C@H](C)C[C@H](N(C)C)[C@H]1O | 8 (≈ 9.25 µM) | > 64 | 0.5 (≈ 0.578 µM) | 4 (≈ 4.62 µM) | 2 (≈ 2.31 µM) | > 64 | > 64 | 0.5 (≈ 0.578 µM) | 4 (≈ 4.62 µM) | 2 (≈ 2.31 µM) |  |  |  |  | 
 |  |  | CC[C@H]1OC(=O)[C@H](C)[C@@H](OC(=O)CCNCCNc2cc3c(=O)c(C(=O)O)cn(C4CC4)c3cc2Cl)[C@H](C)[C@@H](O[C@@H]2O[C@H](C)C[C@H](N(C)C)[C@H]2O)[C@](C)(OC/C=C/c2cnc3ccccc3n2)C[C@@H](C)NC(=O)[C@H](C)[C@@H](O)[C@]1(C)O | 4 (≈ 3.52 µM) | 16 (≈ 14.1 µM) | ≤ 0.125 | 0.5 (≈ 0.441 µM) | 0.5 (≈ 0.441 µM) | 1 (≈ 0.881 µM) | > 64 | ≤ 0.125 | 1 (≈ 0.881 µM) | 1 (≈ 0.881 µM) |  |  |  |  | 
 |  |  | C=CCO[C@]1(C)C[C@@H](C)NC(=O)[C@H](C)[C@@H](O)[C@](C)(O)[C@@H](CC)OC(=O)[C@H](C)[C@@H](OC(=O)CCNC(C)C(=O)Nc2cnc3ccccc3c2)[C@H](C)[C@H]1O[C@@H]1O[C@H](C)C[C@H](N(C)C)[C@H]1O (some centres not stated) | 4 (≈ 4.44 µM) | 8 (≈ 8.89 µM) | ≤ 0.125 | 0.25 (≈ 0.278 µM) | 0.5 (≈ 0.555 µM) | 16 (≈ 17.8 µM) | > 64 | ≤ 0.125 | 1 (≈ 1.11 µM) | 1 (≈ 1.11 µM) |  |  |  |  | 
 |  |  | C=CCO[C@]1(C)C[C@@H](C)NC(=O)[C@H](C)[C@@H](O)[C@](C)(O)[C@@H](CC)OC(=O)[C@H](C)[C@@H](OC(=O)CCN2CCN(c3cc4c(cc3F)c(=O)c(C(=O)O)cn4C3CC3)CC2)[C@H](C)[C@H]1O[C@@H]1O[C@H](C)C[C@H](N(C)C)[C@H]1O | 4 (≈ 3.94 µM) | 8 (≈ 7.87 µM) | 0.5 (≈ 0.492 µM) | 1 (≈ 0.984 µM) | 0.5 (≈ 0.492 µM) | 4 (≈ 3.94 µM) | > 64 | 0.5 (≈ 0.492 µM) | 0.5 (≈ 0.492 µM) | 1 (≈ 0.984 µM) | Stable |  |  |  | 
 |  |  | CC[C@H]1OC(=O)[C@H](C)[C@@H](OC(=O)CCNCCNc2cc3c(=O)c(C(=O)O)cn(C4CC4)c3cc2Cl)[C@H](C)[C@@H](O[C@@H]2O[C@H](C)C[C@H](N(C)C)[C@H]2O)[C@](C)(OC/C=C/c2cccc3ncccc23)C[C@@H](C)NC(=O)[C@H](C)[C@@H](O)[C@]1(C)O | 8 (≈ 7.06 µM) | 32 (≈ 28.2 µM) | 0.5 (≈ 0.441 µM) | 4 (≈ 3.53 µM) | 1 (≈ 0.882 µM) | 8 (≈ 7.06 µM) | > 64 | 1 (≈ 0.882 µM) | 4 (≈ 3.53 µM) | 2 (≈ 1.76 µM) |  |  |  |  | 
 |  |  | C=CCO[C@]1(C)C[C@@H](C)NC(=O)[C@H](C)[C@@H](O)[C@](C)(O)[C@@H](CC)OC(=O)[C@H](C)[C@@H](OC(=O)CCNCCNc2cc3c(cc2F)c(=O)c(C(=O)O)cn3C2CC2)[C@H](C)[C@H]1O[C@@H]1O[C@H](C)C[C@H](N(C)C)[C@H]1O | 2 (≈ 2.02 µM) | 16 (≈ 16.2 µM) | 0.25 (≈ 0.252 µM) | 0.5 (≈ 0.505 µM) | 0.25 (≈ 0.252 µM) | 2 (≈ 2.02 µM) | > 64 | 0.25 (≈ 0.252 µM) | 0.5 (≈ 0.505 µM) | 0.25 (≈ 0.252 µM) |  |  |  |  | 
 |  |  | C=CCO[C@]1(C)C[C@@H](C)NC(=O)[C@H](C)[C@@H](O)[C@](C)(O)[C@@H](CC)OC(=O)[C@H](C)[C@@H](OC(=O)CCNC(C)C(=O)Nc2ccc3ncccc3c2)[C@H](C)[C@H]1O[C@@H]1O[C@H](C)C[C@H](N(C)C)[C@H]1O (some centres not stated) | 4 (≈ 4.44 µM) | 4 (≈ 4.44 µM) | ≤ 0.125 | 0.25 (≈ 0.278 µM) | 0.5 (≈ 0.555 µM) | 8 (≈ 8.89 µM) | > 64 | ≤ 0.125 | 0.25 (≈ 0.278 µM) | 0.5 (≈ 0.555 µM) |  |  |  |  | 
 |  |  | C=CCO[C@]1(C)C[C@@H](C)NC(=O)[C@H](C)[C@@H](O)[C@](C)(O)[C@@H](CC)OC(=O)[C@H](C)[C@@H](OC(=O)CCN2CCN(c3cc4c(cc3F)c(=O)c(C(=O)OC)cn4C3CC3)CC2)[C@H](C)[C@H]1O[C@@H]1O[C@H](C)C[C@H](N(C)C)[C@H]1O | 8 (≈ 7.77 µM) | 32 (≈ 31.1 µM) | 2 (≈ 1.94 µM) | 4 (≈ 3.88 µM) | 2 (≈ 1.94 µM) | 8 (≈ 7.77 µM) | > 64 | 2 (≈ 1.94 µM) | 8 (≈ 7.77 µM) | 4 (≈ 3.88 µM) |  |  |  |  | 
 |  |  | CC[C@H]1OC(=O)[C@H](C)[C@@H](OC(=O)CCNCCNc2cc3c(=O)c(C(=O)O)cn(C4CC4)c3cc2Cl)[C@H](C)[C@@H](O[C@@H]2O[C@H](C)C[C@H](N(C)C)[C@H]2O)[C@](C)(OC/C=C/c2ccc3ncccc3c2)C[C@@H](C)NC(=O)[C@H](C)[C@@H](O)[C@]1(C)O | 4 (≈ 3.53 µM) | 4 (≈ 3.53 µM) | ≤ 0.125 | 0.25 (≈ 0.221 µM) | 0.25 (≈ 0.221 µM) |  | > 64 | ≤ 0.125 | 0.25 (≈ 0.221 µM) | 0.25 (≈ 0.221 µM) |  | 2 | 2 | 15.1 | 12.8
 |  |  | CC[C@H]1OC(=O)[C@H](C)[C@@H](OC(=O)CCNCCNc2cc3c(=O)c(C(=O)O)cn(C4CC4)c3cc2Cl)[C@H](C)[C@@H](O[C@@H]2O[C@H](C)C[C@H](N(C)C)[C@H]2O)[C@](C)(OC/C=C/c2ccnc3ccccc23)C[C@@H](C)NC(=O)[C@H](C)[C@@H](O)[C@]1(C)O | 16 (≈ 14.1 µM) | 32 (≈ 28.2 µM) | 0.25 (≈ 0.221 µM) | 1 (≈ 0.882 µM) | 0.5 (≈ 0.441 µM) | 4 (≈ 3.53 µM) | > 64 | 0.5 (≈ 0.441 µM) | 4 (≈ 3.53 µM) | 0.5 (≈ 0.441 µM) |  |  |  |  | 
30 | 57 | 18 | CCOc1ccc2ccc(=O)oc2c1 [ETHOXYCOUMARIN] |  |  |  |  |  |  |  |  |  |  |  |  |  |  | 
